In PubChem BioAssay AID2060343 (Molecular Pharmacology Branch, DTP, NCI, 2025):

Tested on: 138582-337-R-J1-PDC spheroids with HUVEC/MSC, viability
Experiment: Anticancer human tumor 138582-337-R-J1-PDC patient-derived Merkel cell tumor cell line growth inhibition [IpAb]
Conditions: for IC50: curve of first compound; for viability, T/C: stronger effect = lower value
Method in brief: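 Combinations with ipatasertib or abemaciclib were tested on tumour spheroids holding HUVEC (25%) and MSC (15%) alongside 60% malignant cells. Top concentration was at or near clinical Cmax (10 microM if undefined), descending in half-log steps.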

[1] = second compound 0.1 µM, first compound 0.0316 µM
[2] = second compound 0.1 µM, first compound 0.1 µM
[3] = second compound 0.1 µM, first compound 0.316 µM
[4] = second compound 0.1 µM, first compound 1 µM
[5] = second compound 0.1 µM, first compound 3.16 µM
[6] = second compound 0.1 µM, first compound 10 µM
[7] = second compound 0.316 µM, first compound 0.0316 µM
[8] = second compound 0.316 µM, first compound 0.1 µM
[9] = second compound 0.316 µM, first compound 0.316 µM
[10] = second compound 0.316 µM, first compound 1 µM
[11] = second compound 0.316 µM, first compound 3.16 µM
[12] = second compound 0.316 µM, first compound 10 µM
[13] = second compound 1 µM, first compound 0.0316 µM
[14] = second compound 1 µM, first compound 0.1 µM
[15] = second compound 1 µM, first compound 0.316 µM
[16] = second compound 1 µM, first compound 1 µM
[17] = second compound 1 µM, first compound 3.16 µM
[18] = second compound 1 µM, first compound 10 µM
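Also: spheroids exposed to compounds for seven days.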
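For viability, T/C in this document: 100% = DMSO vehicle control viability.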

With CC(C)(C)c1cnc(CSc2cnc(NC(=O)C3CCNCC3)s2)o1 + CC(C)NCC(C(=O)N1CCN(c2ncnc3c2C(C)CC3O)CC1)c1ccc(Cl)cc1 the IC50 (second compound 0.1 µM) was 0.0945 µM, the IC50 (second compound 0.316 µM) was 0.0767 µM and the IC50 (second compound 1 µM) was 0.0529 µM. For the same compound, the IC50 (second compound 3.16 µM) was 0.0371 µM, the IC50 (second compound 10 µM) was under 0.00949 µM and the viability, T/C (second compound 0.1 µM, first compound 0.00949 µM) was 104%. It also gave a viability, T/C (second compound 0.1 µM, first compound 0.03 µM) of 97.3%, a viability, T/C (second compound 0.1 µM, first compound 0.0949 µM) of 50.3% and a viability, T/C (second compound 0.1 µM, first compound 0.3 µM) of 0.31%. It also gave a viability, T/C (second compound 0.1 µM, first compound 0.949 µM) of 0.3%, a viability, T/C (second compound 0.1 µM, first compound 3 µM) of 0.37% and a viability, T/C (second compound 0.316 µM, first compound 0.00949 µM) of 79%. The viability, T/C (second compound 0.316 µM, first compound 0.03 µM) was 74.3%, the viability, T/C (second compound 0.316 µM, first compound 0.0949 µM) was 44.2% and the viability, T/C (second compound 0.316 µM, first compound 0.3 µM) was 0.31%. For the same compound, the viability, T/C (second compound 0.316 µM, first compound 0.949 µM) was 0.36%, the viability, T/C (second compound 0.316 µM, first compound 3 µM) was 0.44% and the viability, T/C (second compound 1 µM, first compound 0.00949 µM) was 72.7%. For the same compound, the viability, T/C (second compound 1 µM, first compound 0.03 µM) was 72.2%, the viability, T/C (second compound 1 µM, first compound 0.0949 µM) was 27% and the viability, T/C (second compound 1 µM, first compound 0.3 µM) was 0.41%. It also gave a viability, T/C (second compound 1 µM, first compound 0.949 µM) of 0.35%, a viability, T/C (second compound 1 µM, first compound 3 µM) of 0.37% and a viability, T/C (second compound 3.16 µM, first compound 0.00949 µM) of 55.2%. For the same compound, the viability, T/C (second compound 3.16 µM, first compound 0.03 µM) was 58.7%, the viability, T/C (second compound 3.16 µM, first compound 0.0949 µM) was 19.5% and the viability, T/C (second compound 3.16 µM, first compound 0.3 µM) was 0.33%. For the same compound, the viability, T/C (second compound 3.16 µM, first compound 0.949 µM) was 0.23%, the viability, T/C (second compound 3.16 µM, first compound 3 µM) was 0.81% and the viability, T/C (second compound 10 µM, first compound 0.00949 µM) was 43.8%. For the same compound, the viability, T/C (second compound 10 µM, first compound 0.03 µM) was 43.9%, the viability, T/C (second compound 10 µM, first compound 0.0949 µM) was 5.74% and the viability, T/C (second compound 10 µM, first compound 0.3 µM) was 0.5%. The viability, T/C (second compound 10 µM, first compound 0.949 µM) was 0.35% and the viability, T/C (second compound 10 µM, first compound 3 µM) was 0.49%.
Work on C=CCn1c(=O)c2cnc(Nc3ccc(N4CCN(C)CC4)cc3)nc2n1-c1cccc(C(C)(C)O)n1 + CC(C)NCC(C(=O)N1CCN(c2ncnc3c2C(C)CC3O)CC1)c1ccc(Cl)cc1 yielded an IC50 (second compound 0.1 µM) of over 10 µM, an IC50 (second compound 0.316 µM) of over 10 µM and an IC50 (second compound 1 µM) of over 10 µM. The IC50 (second compound 3.16 µM) was under 0.0316 µM, the IC50 (second compound 10 µM) was under 0.0316 µM and the viability, T/C [1] was 96.8%. For the same compound, the viability, T/C [2] was 95.6%, the viability, T/C [3] was 78% and the viability, T/C [4] was 99.6%. It also gave a viability, T/C [5] of 99.1%, a viability, T/C [6] of 134% and a viability, T/C [7] of 85.5%. The viability, T/C [8] was 73.6%, the viability, T/C [9] was 74.7% and the viability, T/C [10] was 71.4%. It also gave a viability, T/C [11] of 94.2%, a viability, T/C [12] of 117% and a viability, T/C [13] of 66.7%. For the same compound, the viability, T/C [14] was 73.5%, the viability, T/C [15] was 54.5% and the viability, T/C [16] was 63.6%. The viability, T/C [17] was 83.4%, the viability, T/C [18] was 89.1% and the viability, T/C (second compound 3.16 µM, first compound 0.0316 µM) was 58.1%. For the same compound, the viability, T/C (second compound 3.16 µM, first compound 0.1 µM) was 53.6%, the viability, T/C (second compound 3.16 µM, first compound 0.316 µM) was 38.9% and the viability, T/C (second compound 3.16 µM, first compound 1 µM) was 46.6%. It also gave a viability, T/C (second compound 3.16 µM, first compound 3.16 µM) of 74.8%, a viability, T/C (second compound 3.16 µM, first compound 10 µM) of 73.8% and a viability, T/C (second compound 10 µM, first compound 0.0316 µM) of 54.6%. The viability, T/C (second compound 10 µM, first compound 0.1 µM) was 41.5%, the viability, T/C (second compound 10 µM, first compound 0.316 µM) was 33.9% and the viability, T/C (second compound 10 µM, first compound 1 µM) was 42%. The viability, T/C (second compound 10 µM, first compound 3.16 µM) was 60.1% and the viability, T/C (second compound 10 µM, first compound 10 µM) was 55.5%.
C=CC(=O)N1CCN(c2nc(=O)n(-c3c(C)ccnc3C(C)C)c3nc(-c4c(O)cccc4F)c(F)cc23)C(C)C1 (stereo not given) + CCN1CCN(Cc2ccc(Nc3ncc(F)c(-c4cc(F)c5nc(C)n(C(C)C)c5c4)n3)nc2)CC1 was tested, and the IC50 (second compound 0.01 µM) was over 10 µM, the IC50 (second compound 0.0316 µM) was over 10 µM and the IC50 (second compound 0.1 µM) was over 10 µM. It also gave an IC50 (second compound 0.316 µM) of over 10 µM, an IC50 (second compound 1 µM) of over 10 µM and a viability, T/C (second compound 0.01 µM, first compound 0.0316 µM) of 107%. For the same compound, the viability, T/C (second compound 0.01 µM, first compound 0.1 µM) was 107%, the viability, T/C (second compound 0.01 µM, first compound 0.316 µM) was 121% and the viability, T/C (second compound 0.01 µM, first compound 1 µM) was 121%. It also gave a viability, T/C (second compound 0.01 µM, first compound 3.16 µM) of 143%, a viability, T/C (second compound 0.01 µM, first compound 10 µM) of 176% and a viability, T/C (second compound 0.0316 µM, first compound 0.0316 µM) of 98.7%. For the same compound, the viability, T/C (second compound 0.0316 µM, first compound 0.1 µM) was 95.7%, the viability, T/C (second compound 0.0316 µM, first compound 0.316 µM) was 90.7% and the viability, T/C (second compound 0.0316 µM, first compound 1 µM) was 116%. For the same compound, the viability, T/C (second compound 0.0316 µM, first compound 3.16 µM) was 125%, the viability, T/C (second compound 0.0316 µM, first compound 10 µM) was 186% and the viability, T/C [1] was 83.7%. The viability, T/C [2] was 90.6%, the viability, T/C [3] was 104% and the viability, T/C [4] was 119%. It also gave a viability, T/C [5] of 139%, a viability, T/C [6] of 218% and a viability, T/C [7] of 94.8%. For the same compound, the viability, T/C [8] was 94.3%, the viability, T/C [9] was 92.8% and the viability, T/C [10] was 105%. For the same compound, the viability, T/C [11] was 144%, the viability, T/C [12] was 229% and the viability, T/C [13] was 104%. It also gave a viability, T/C [14] of 96.8%, a viability, T/C [15] of 111% and a viability, T/C [16] of 118%. It also gave a viability, T/C [17] of 135% and a viability, T/C [18] of 282%.
